Data reported in ChEMBL document CHEMBL3885861, “Open TG-GATES”.

Organism: Rattus norvegicus
Assay: Open TG-GATES - Regimen: Daily Repeat
Type: toxicity, organism-based, Sprague-Dawley
Set-up: regimen Daily Repeat, gender Male, age 6 weeks
Settings: in vivo, po, 30 mg/kg, route gavage, dose level High; for APTT / Bas / Eos / Fbg / Hb / Ht / Lym / MCH / MCHC / MCV / Mono / Neu / PT / Plat / RBC / Ret / WBC: tissue Blood
[1] = 72 h, tissue Kidney, time 3 day
[2] = 72 h, tissue Plasma, time 3 day

CN(C)CCC(c1ccc(Cl)cc1)c1ccccn1 (stereo unspecified) [CHLORPHENIRAMINE]
TERMINAL_BW (72 h, time 3 day): 205.8 g
APTT (72 h, time 3 day): 18.2 s
Bas (72 h, time 3 day): 0.4%
Eos (72 h, time 3 day): 1%
Fbg (72 h, time 3 day): 272.2 mg/dL
Hb (72 h, time 3 day): 14.3 g/dL
Ht (72 h, time 3 day): 43.8%
Lym (72 h, time 3 day): 78.6%
MCH (72 h, time 3 day): 20.4 pg
MCHC (72 h, time 3 day): 32.5%
MCV (72 h, time 3 day): 62.5 fL
Mono (72 h, time 3 day): 3.2%
Neu (72 h, time 3 day): 15.8%
PT (72 h, time 3 day): 15.3 s
Plat (72 h, time 3 day): 124 x10_4/uL
RBC (72 h, time 3 day): 701 x10_4/ul
Ret (72 h, time 3 day): 3.4%
WBC (72 h, time 3 day): 91.9 x10_2/uL
KIDNEY_L [1]: 1 g
KIDNEY_R [1]: 0.9 g
KIDNEY_TOTAL [1]: 1.9 g
LIVER (72 h, tissue Liver, time 3 day): 8.8 g
A/G [2]: 0.9
ALP [2]: 1539.6 IU/L
ALT [2]: 38 IU/L
AST [2]: 67.2 IU/L
BUN [2]: 14.8 mg/dL
CRE [2]: 0.2 mg/dL
Ca [2]: 10.3 mg/dL
Cl [2]: 108.8 meq/L
DBIL [2]: 0.012 mg/dL
GLC [2]: 182.6 mg/dL
IP [2]: 7.5 mg/dL
K [2]: 4.5 meq/L
LDH [2]: 95.6 IU/L
Na [2]: 142.2 meq/L
PL [2]: 133 mg/dL
RALB [2]: 2.6 g/dL
TBIL [2]: 0.038 mg/dL
TC [2]: 74.6 mg/dL
TG [2]: 62.6 mg/dL
TP [2]: 5.5 g/dL
gamma-GTP [2]: 1.2 IU/L
TERMINAL_BW ([…], time 7 day): 242.7 g
TERMINAL_BW ([…], time 14 day): 294.5 g
TERMINAL_BW ([…], time 28 day): 368.6 g
APTT ([…], time 7 day): 19.1 s
Bas ([…], time 7 day): 0.4%
Eos ([…], time 7 day): 1%
Fbg ([…], time 7 day): 302.6 mg/dL
Hb ([…], time 7 day): 13.6 g/dL
Ht ([…], time 7 day): 40.9%
Lym ([…], time 7 day): 74%
MCH ([…], time 7 day): 20.5 pg
MCHC ([…], time 7 day): 33.3%
MCV ([…], time 7 day): 61.4 fL
Mono ([…], time 7 day): 3.2%
Neu ([…], time 7 day): 21.2%
PT ([…], time 7 day): 13.9 s
Plat ([…], time 7 day): 119 x10_4/uL
RBC ([…], time 7 day): 665.2 x10_4/ul
Ret ([…], time 7 day): 3.6%
WBC ([…], time 7 day): 121.3 x10_2/uL
APTT ([…], time 14 day): 17.1 s
Bas ([…], time 14 day): 0.2%
Eos ([…], time 14 day): 0.8%
Fbg ([…], time 14 day): 282 mg/dL
Hb ([…], time 14 day): 14.1 g/dL
Ht ([…], time 14 day): 42.4%
Lym ([…], time 14 day): 79.2%
MCH ([…], time 14 day): 19.9 pg
MCHC ([…], time 14 day): 33.4%
MCV ([…], time 14 day): 59.7 fL
Mono ([…], time 14 day): 2.6%
Neu ([…], time 14 day): 16.4%
PT ([…], time 14 day): 14.3 s
Plat ([…], time 14 day): 113.7 x10_4/uL
RBC ([…], time 14 day): 709 x10_4/ul
Ret ([…], time 14 day): 4.6%
WBC ([…], time 14 day): 93.8 x10_2/uL
APTT ([…], time 28 day): 20.7 s
Bas ([…], time 28 day): 0%
Eos ([…], time 28 day): 0.8%
Fbg ([…], time 28 day): 290.6 mg/dL
Hb ([…], time 28 day): 15.8 g/dL
Ht ([…], time 28 day): 46.8%
